The values that follow come from patent US6362211B1, “Polycyclic indanylimidazoles with alpha2 adrenergic activity” (Orion Corporation, priority 2000, dated 2002).

The assay relates to Alpha2 Adrenoceptors (alpha2AR). Put plainly: Antagonist activity on alpha2 adrenoceptors in rat vas deferens in vitro (electrically evoked twitch response). The format is cell-based. The settings on record: isolated rat vas deferens, field stimulation; antagonist given at least five minutes before alpha2AR agonist. As to the method:
Antagonist Activity on Alpha2 Adrenoceptors (alpha2AR) in Rat Vas Deferens in Vitro
Rats were killed by CO2-suffocation. Vas deferentia were dissected out and both prostatic halves were removed to tissue chambers containing Krebs-solution of the following composition (mM): NaCl 118, KCl 4.7, CaCl2 2.5, KH2PO4 1.2, MgSO4 0.6, NaHCO3 25, glucose 11.1, aerated by 5% carbogen, temperature 37° C., pH 7.4. Propranolol […] and desipramine […] were added to prevent the possible effects on […] receptors and to prevent re-uptake of released norepinephrine, respectively. Preparations were tied to the bottom hooks of the incubation chambers and the to isometric force-displacement transducers above. Electrical stimulation was started after the equilibrium period/5 minutes under a resting tension of 0.5 g) by introducing field stimulation with the following parameters: twin-pulses, voltage 70 V, frequency 0.2 Hz, delay 5 ms, duration 2 ms. […] Inhibition of the electrically evoked contractions was measured as the response to alpha2AR agonists. Antagonist was administered into the incubation medium at least five minutes before agonist. Means±SEM of percentage inhibition were calculated in the absence and in the presence of antagonist and expressed as dose-response curves. In order to express the antagonist potency, pA2-value was calculated.
With `C=C1CCC2(c3c[nH]cn3)Cc3ccccc3C12` (stereo not shown) [2(a), 4-(3-Methylene-2,3,3a,8-tetrahydro-1H-cyclopenta[a]inden-8a-yl)-1H-imidazole], the “Vas deferens Alpha2 antagonistic activity, pA2” value is reported as “pA2 = 7.8”.
`c1ccc2c(c1)CC1(c3c[nH]cn3)CCCCC21` (stereo not shown) [3(i), 4-(4b,5,6,7,8,9-Hexahydrofluoren-8a-yl)-1H-imidazole]: the “Vas deferens Alpha2 antagonistic activity, pA2” value is on record as “pA2 = 8.2”.
Turning to `c1ccc2c(c1)CC1(c3c[nH]cn3)CCCC21` (stereo not shown) [Example 1(e), 4-(2,3,3a,8-Tetrahydro-1H-cyclopenta[a]inden-8a-yl)-1H-imidazole], the “Vas deferens Alpha2 antagonistic activity, pA2” value was “pA2 = 8.4”.
As for `CC1CCC2(c3c[nH]cn3)Cc3ccccc3C12` (stereo not shown) [Example 2(b), 4-(3-Methyl-2,3,3a,8-tetrahydro-1H-cyclopenta[a]inden-8a-yl)-1H-imidazole], the “Vas deferens Alpha2 antagonistic activity, pA2” value is reported as “pA2 = 7.4”.
The value for `Fc1ccc2c(c1)C1CCCCC1(c1c[nH]cn1)C2` (stereo not shown) [Example 4, 4-(3-Fluoro-4b,5,6,7,8,9-hexahydrofluoren-8a-yl)-1H-imidazole] was “pA2 = 7.4”; that for `COc1ccc2c(c1)C1CCCCC1(c1c[nH]cn1)C2` (stereo not shown) [Example 5(a), 4-(3-Methoxy-4b,5,6,7,8,9-hexahydrofluoren-8a-yl)-1H-imidazole] was “pA2 = 6.9”.
For the molecule `Oc1ccc2c(c1)C1CCCCC1(c1c[nH]cn1)C2` (stereo not shown) [Example 5(b), 8a-(1H-Imidazol-4-yl)-5,6,7,8,8a,9-hexahydro-4bH-fluoren-3-ol], the “Vas deferens Alpha2 antagonistic activity, pA2” value is listed as “pA2 = 7.7”.
Regarding `OCCOCCOc1ccc2c(c1)C1CCCCC1(c1c[nH]cn1)C2` (stereo not shown) [Example 6, 2-{2-[8a-(1H-Imidazol-4-yl)-5,6,7,8,8a,9-hexahydro-4bH-fluoren-3-yloxy]-ethoxy}-ethanol], the “Vas deferens Alpha2 antagonistic activity, pA2” value was “pA2 = 6.0”.
Regarding `c1ccc2c(c1)CC1(c3c[nH]cn3)C3CCC(CC3)C21` (stereo not shown) [Example 7(f), 4-(5,8-Ethano-4b,5,6,7,8,9-hexahydro-fluoren-8a-yl)-1H-imidazole], the “Vas deferens Alpha2 antagonistic activity, pA2” value is listed as “pA2 = 5.3”.
Turning to `c1ccc2c(c1)CC1(c3c[nH]cn3)Cc3ccccc3C21` (stereo not shown) [Example 8, 4-(4b,10-Dihydro-9H-indeno[1,2-a]inden-9a-yl)-1H-imidazole], the “Vas deferens Alpha2 antagonistic activity, pA2” value is listed as “pA2 = 7.4”.
